Measurements from patent US20250276068A1, “PHARMACEUTICAL COMPOSITIONS OF POLYPEPTIDE CONJUGATES AND METHODS OF USES THEREOF” (BEIJING QL BIOPHARMACEUTICAL CO., LTD., priority 2022, published 2025).
Each block holds one molecule with its values, some of them ahead of it. *1 amine or outer side, *2 acyl side, *3 side chain or, on linkers, in order; H or OH if unused. Side-chain parts run from the residue outwards. [ ]: non-standard residue; d: D form. The star is where a group is joined. C18 diacid = O=C(O)CCCCCCCCCCCCCCCCC(=O)*; γGlu = O=C(O)[C@H](CCC(=O)[*:2])N[*:1]; AEEA = NCCOCCOCC(=O)O; Aib = CC(C)(N)C(=O)O

Assays:
db/db mice = assay: Non-fasting glucose in db/db mice after single s.c. dose; format: in vivo
Description: Method: 10 weeks old male db/db mice were injected subcutaneously with GLP-1 polypeptide conjugate once. […] Delta blood glucose is glucose subtracted by baseline level. […] The area under the curve for delta blood glucose from 0 until 192 hours (AUCΔBG 0-192h) was calculated.

GLP-1 receptor = GLP-1 receptor (Homo sapiens, UniProt P43220); conditions: J. Med. Chem. 2015, 58, 7370-7380; cited from earlier work
Sequence of GLP-1 receptor (P43220 24-463, species assumed): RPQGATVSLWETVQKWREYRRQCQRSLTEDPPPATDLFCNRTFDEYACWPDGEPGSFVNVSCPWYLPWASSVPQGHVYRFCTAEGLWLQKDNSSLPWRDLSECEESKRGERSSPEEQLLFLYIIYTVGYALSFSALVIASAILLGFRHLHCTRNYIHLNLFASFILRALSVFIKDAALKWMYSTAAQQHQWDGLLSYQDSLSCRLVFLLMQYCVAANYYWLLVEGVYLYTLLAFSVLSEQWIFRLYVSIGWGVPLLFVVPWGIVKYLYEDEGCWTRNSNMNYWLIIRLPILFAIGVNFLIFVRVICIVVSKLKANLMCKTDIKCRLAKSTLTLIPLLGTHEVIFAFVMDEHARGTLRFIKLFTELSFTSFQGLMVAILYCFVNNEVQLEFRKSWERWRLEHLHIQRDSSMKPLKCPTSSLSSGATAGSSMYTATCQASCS

C57BL/6 mice = assay: Body weight loss in C57 lean mice after single s.c. dose; format: in vivo; conditions: 30 nmol/kg s.c. once
Description: Method: 10 week old male C57BL/6 mice were injected subcutaneously with protein once on Day1. Body weight was measured daily and five animals were used for each treatment group. Body weight was monitored for each individual animal. % BW loss=100*(BW on Day n−BW on Day 1)/(BW on Day 1). […] The area under the curve for body weight loss (%) from 0 until 8 days (AUG ΔBW 0-8d) was calculated.

human serum albumin [1] = biological target: human serum albumin (Homo sapiens, UniProt P02768); assay: Human serum albumin binding by surface plasmon resonance (Biacore 8K); conditions: human serum albumin on CM5 chip, SPR
Description: Method: Binding of molecules to serum albumin was characterized by surface plasmon resonance in a Biacore 8K instrument. Serum albumin from different species was covalently bound to CM5 sensor chips surface until 4000 RU was reached. The chip was blocked by 1M ethanolamine with flowrate of 10 μL/min for 420 s. Each molecule sample was diluted and injected at a flow rate of 30 μL/min to allow for binding to chip-bound albumin for 120 s and for dissociation for 300 s. Binding buffer without molecule was sent over the chip at the flow rate of 20 seconds to allow spontaneous dissociation of bound molecule for 30 seconds.

human serum albumin [2] = biological target: T1, human serum albumin (human, UniProt P02768 25-609); assay: SPR (Biacore 8K), albumin on CM5 chip
T1 construct: also called HSA

Molecule: semaglutide
AUC ΔBG 0-192 h (db/db mice; 3 nmol/kg s.c. once): -317.0 mmol·h/L
AUC ΔBG 0-192 h (db/db mice; 10 nmol/kg s.c. once): -583.4 mmol·h/L
AUC ΔBG 0-192 h (db/db mice; 30 nmol/kg s.c. once): -527.1 mmol·h/L
loss in GLP-1 receptor binding in presence of human serum albumin (HSA) relative to its unconjugated counterpart (GLP-1 receptor): 939 fold
AUC ΔBW 0-8 d (day*%) (C57BL/6 mice; Study 1 (FIG. 1A)): −9.3 day*%
AUC ΔBW 0-8 d (day*%) (C57BL/6 mice; Study 2 (FIG. 1B)): −13.2 day*%
Rmax (RU) (human serum albumin [1]): 55.2 RU

B1: Molecule 002 (peptide)
peptide: H[Aib]EGTFTSDVSSYLEGQAAREFIAWLVRGGGGAQPGAQPGAQPGAQPGAQPGAQPGAQPGAQPGAQPGQK([AEEA-AEEA-γGlu-C18 diacid])P
notes: Mono-acylated GLP-1 polypeptide conjugate; also called 1006
binding result (human serum albumin [2]): binds

More lines, now with the values ahead:

binding result (human serum albumin [2]): binds
B2: Molecule 012 (peptide)
peptide: H[Aib]EGTFTSDVSSYLEEQAAK([AEEA-AEEA-γGlu-C18 diacid])EFIAWLVRGGGGAQPGAQPGAQPGAQPGAQPGAQPGAQPGAQPGAQPGQK([AEEA-AEEA-γGlu-C18 diacid])P
notes: Double-acylated GLP-1 polypeptide conjugate

binding result (human serum albumin [2]): binds
B3: Molecule 019 (peptide)
peptide: H[Aib]EGTFTSDVSSYLEEQAAREFIAWLVRGGGGAQPGAQPGAQPGAQPGAQPGAQPGAQPGAQPGAQPGQK([AEEA-AEEA-γGlu-C18 diacid])P
notes: Mono-acylated GLP-1 polypeptide conjugate; also called 1023
